Results from patent US9951039B2, “Pyrimidines for treatment of bacterial infections” (The Hong Kong Polytechnic University, priority 2016, dated 2018).
Converted amounts (≈) assume the structure as drawn.

Experiments:
[1] = tested on: S. aureus ATCC BAA-41 (methicillin resistant); test: MIC against clinically isolated strain 4; format: cell-based; settings: Staphylococcus aureus, ATCCBAA41
Method: (§1) Procedure of Antimicrobial susceptibility test: The MIC value of compounds was measured in the antimicrobial susceptibility test using the broth microdilution procedure in accordance with the CLSI guidelines.^21 Cation-adjusted Mueller Hinton broth (CA-MHB) was used for all the S. aureus strains in the assay. Cells in exponential phase of growth were diluted to approximately 5×10^5 cfu/mL. Stock solutions of each compound were freshly dissolved in dimethyl sulfoxide (DMSO). Then, serial dilutions of each compound in CA-MHB medium were added into 96-well microplate. The final percentage of DMSO in the assay was 1%. Control experiments were performed with 1% DMSO instead of the compound solution. After being incubated at 37° C. for 18 h, OD600 value of cells was measured on a microplate reader and the percentage of bacterial cell inhibition with respect to controls was calculated. The MIC value was defined as the lowest compound concentration at which the growth of bacteria was inhibited by ≥90%. Three independent assays were performed for each compound.
(§2) Results: Three compounds, namely 14av_amine16, 14dv_amine16 and 14dv_amine06, were selected to be tested against nine in-house clinically isolated bacterial strains including S. aureus ATCC29247, which is an ampicillin resistant strain, S. aureus ATCC BAA-41, ATCC BAA-1717, ATCC BAA-1720, ATCC 43300 which are methicillin resistant strains and four USA300 strains, (#417, #757, #1799 and #2690), which are the predominant strain type of community-associated MRSA strains in the United States.

[2] = tested on: USA300 #417 (community-associated MRSA); test: MIC against clinically isolated strain 6; format: cell-based, S. aureus; settings: Staphylococcus aureus
Method: as §1, §2

MRSA ATCC 43300 = test: Antimicrobial efficacy in G. mellonella model of infection; format: in vivo, Galleria mellonella
Method: Procedure: Compound 14av_amine16 was tested in a Galleria mellonella model, which are an easy and inexpensive in vivo model with no ethical constraints for investigating antibacterial activity of a compound.^22 The G. mellonella model of S. aureus infection was used as previously described.^24 Briefly, 1 mL aliquots of overnight cultures of S. aureus 43300 were pelleted by centrifugation and washed with sterile PBS before being resuspended in 100 μL of PBS. G. mellonella larvae (N=10) that weighed 200-300 mg were then inoculated with 10 μL of S. aureus (2.5×10^6 CFU) into the last left proleg. Larvae were then treated with compounds at 1 h before bacterial inoculation. Treatments were performed in the same manner as infection, except that compounds were injected into the next left proleg moving toward the head of the larvae. […] Data was analyzed for statistical significance using a log rank and χ square test with 1 degree of freedom. Various concentrations of compound 14av_amine16 dissolved in 50% PEG in saline (0 mg/Kg, 50 mg/Kg and 100 mg/Kg) were injected into the hemocoel of last-instar G. mellonella larvae and survival was scored over time.
The efficacy of compound 14av_amine16 against G. mellonella larvae infected with MRSA ATCC 43300 was investigated. Inoculation of lethal dose of 2.5×10^6 CFU/larva of MRSA ATCC 43300 led to a significant death rate. […]

B. subtilis 168 = test: MIC against B. subtilis 168; format: cell-based; settings: Bacillus subtilis

## CCC(CC)c1cc(CCN2CCCN(Cc3ccc(C(F)(F)F)cc3)CC2)nc(-c2ccncc2)n1 [Compound 14av_amine16, 1-(2-(6-(pentan-3-yl)-2-(pyridin-4-yl)pyrimidin-4-yl)ethyl)-4-(4-(trifluoromethyl)benzyl)-1,4-diazepane]
[1]
  MIC: 12 µM (≈ 6.14 µg/mL)
[2]
  MIC: 12 µM (≈ 6.14 µg/mL)
MRSA ATCC 43300; 50 mg/Kg, lethal dose 2.5×10^6 CFU/larva MRSA ATCC 43300
  survival time of infected larvae: 36 h
MRSA ATCC 43300; 100 mg/Kg, lethal dose MRSA ATCC 43300, 48 h
  survival rate of infected larvae over the infection period: 20%
B. subtilis 168
  MIC: 12 µM (≈ 6.14 µg/mL)
